Assays:
[1] = system: YB1, MTA1, vimentin, and CD44; test: Western blot and qPCR of invasion genes in PC3 cells; type: cell-based, human; details: starting at 6 hr of treatment
Protocol: Western blot analysis was performed as previously described (Hsieh et al., Cancer Cell 17:249-261 (2010)) with antibodies specific to phospho-AKT^S473 (Cell Signaling), AKT (Cell Signaling), phospho-p70S6K^T389 (Cell Signaling), phospho-rpS6^S240/244 (Cell Signaling), rpS6 (Cell Signaling), phospho-4EBP1^T37/46 (Cell Signaling), 4EBP1 (Cell Signaling), 4EBP2 (Cell Signaling), YB1 (Cell Signaling), CD44 (Cell Signaling), LEF1 (Cell Signaling), PTEN (Cell Signaling), eEF2 (Cell Signaling), GAPDH (Cell Signaling), vimentin (BD Biosciences), eIF4E (BD Biosciences), Flag (Sigma), β-actin (Sigma), MTA1 (Santa Cruz Biotechnology), Twist (Santa Cruz Biotechnology), rpL28 (Santa Cruz Biotechnology), HA (Covance) and rictor (Bethyl Laboratory).
RNA was isolated using the manufacturer's protocol for RNA extraction with TRIzol Reagent (Invitrogen) using the Pure Link RNA mini kit (Invitrogen). RNA was DNase-treated with Pure Link Dnase (Invitrogen). DNase-treated RNA was transcribed to cDNA with SuperScript III First-Strand Synthesis System for RT-PCR (Invitrogen), and 1 μl of cDNA was used to run a SYBR green detection qPCR assay (SYBR Green Supermix and MyiQ2, Biorad). Primers were used at 200 nM.

[2] = system: PC3 human prostate cancer cells; test: RNA-seq mRNA abundance (part of ribosome profiling experiment); type: cell-based; details: for PP242 mRNA: 3-hour treatment with PP242 (2.5 μM) in PC3 cells;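 as to all read-outs here: average poly(A) RNA-seq read density per codon over the coding sequence, excluding 15 initial and 5 final codons, mapped to hg19 transcripts, taken as mRNA abundance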
Protocol: Cells were subsequently treated with cycloheximide (100 μg ml^−1; Sigma) and detergent lysis was performed in the dish. The lysate was treated with DNase and clarified, and a sample was taken for RNA-seq analysis. Lysates were subjected to ribosome footprinting by nuclease treatment. Ribosome-protected fragments were purified, and deep sequencing libraries were generated from these fragments, as well as from poly(A) mRNA purified from non-nuclease-treated lysates. These libraries were analyzed by sequencing on an Illumina GAII.
Ribosome footprint and RNA-seq sequencing reads were aligned against a library of transcripts from the UCSC Known Genes database GRCh37/hg19. The first 25 nucleotides of each read were aligned using Bowtie and this initial alignment was then extended to encompass the full fragment-derived portion of the sequencing read while excluding the linker sequence. Read density profiles were then constructed for the canonical transcript of each gene, using only reads with 0 or 1 total mismatches between the read sequence and the reference sequence, comprised of the transcript fragment followed by the linker sequence. Footprint reads were assigned to an A site nucleotide at position +15 to +17 of the alignment, based on the total fragment length; mRNA reads were assigned to the first nucleotide of the alignment. The average read density per codon was then computed for the coding sequence of each transcript, excluding the first 15 and last 5 codons, which can display atypical ribosome accumulation.
Average read density was used as a measure of mRNA abundance (RNA-seq reads) and of protein synthesis (ribosome profiling reads). For most analyses, genes were filtered to require at least 256 reads in the relevant RNA-seq samples. Translational efficiency was computed as the ratio of ribosome footprint read density to RNA-seq read density, scaled to normalize the translational efficiency of the median gene to 1.0 after excluding regulated genes (log 2 fold-change+1.5 after normalizing for the all-gene median). Changes in protein synthesis, mRNA abundance and translational efficiency were similarly computed as the ratio of read densities between different samples, normalized to give the median gene a ratio of 1.0. This normalization corrects for differences in the absolute number of sequencing reads obtained for different libraries.

CC(C)n1nc(-c2cc3cc(O)ccc3[nH]2)c2c(N)ncnc21 [PP242]
expression of YB1, MTA1, vimentin, and CD44 at the protein but not transcript level [1]: selective decrease
PP242 mRNA ([2]; gene ACD): 0.20
mRNA ([2]; gene ACTG1): 0.28
mRNA ([2]; gene AGRN): 0.50
mRNA ([2]; gene ALKBH7): 0.51
mRNA ([2]; gene AP2A1): 0.42
mRNA ([2]; gene ARD1A): 0.03
mRNA ([2]; gene ATP5G2): 0.17
PP242 mRNA ([2]; gene C17orf28): 0.21
mRNA ([2]; gene C21orf66): −0.31
PP242 mRNA ([2]; gene CCNA1): −0.33
mRNA ([2]; gene CCNI): 0.24
mRNA ([2]; gene CD44): 0.43
mRNA ([2]; gene CIRBP): 0.54
mRNA ([2]; gene CLPTM1): 0.41
mRNA ([2]; gene COL6A2): 0.57
mRNA ([2]; gene CRTAP): 0.33
PP242 mRNA ([2]; gene DDX51): 0.17
PP242 mRNA ([2]; gene DGCR2): 0.05
mRNA ([2]; gene ECSIT): 0.26
PP242 mRNA ([2]; gene EEF1A1): 0.29
mRNA ([2]; gene EEF1A2): 0.40
mRNA ([2]; gene EEF1D): 0.35
mRNA ([2]; gene EEF1G): 0.15
mRNA ([2]; gene EEF2): 0.76
mRNA ([2]; gene EIF3H): 0.09
mRNA ([2]; gene EIF3L): 0.21
mRNA ([2]; gene EIF4B): 0.61
mRNA ([2]; gene EVPL): 0.38
mRNA ([2]; gene FAM83H): 0.33
mRNA ([2]; gene FAM128B): 0.43
mRNA ([2]; gene FASN): 0.30
mRNA ([2]; gene GLTSCR2): 0.70
mRNA ([2]; gene GNB2L1): 0.27
PP242 mRNA ([2]; gene GTPBP3): 0.15
mRNA ([2]; gene HNRNPA1): 0.27
mRNA ([2]; gene HSPA8): −0.40
mRNA ([2]; gene IMPDH2): 0.21
mRNA ([2]; gene LAMA5): 0.40
mRNA ([2]; gene LMF2): 0.62
PP242 mRNA ([2]; gene MAPK6): 0.10
PP242 mRNA ([2]; gene MAPKAPK2): −0.22
mRNA ([2]; gene MTA1): 0.21
mRNA ([2]; gene NCLN): 0.29
PP242 mRNA ([2]; gene NFATC21P): 0.08
PP242 mRNA ([2]; gene NR2F1): 0.87
mRNA ([2]; gene PABPC1): 0.16
mRNA ([2]; gene PABPC4): 0.40
mRNA ([2]; gene PACS1): 0.45
mRNA ([2]; gene PFDN5): 0.04
mRNA ([2]; gene PGLS): 0.21
mRNA ([2]; gene PGM1): 0.23
mRNA ([2]; gene PNKP): 0.33
PP242 mRNA ([2]; gene PRKD3): −0.46
mRNA ([2]; gene PTGES2): 0.17
mRNA ([2]; gene RABGGTB): 0.20
PP242 mRNA ([2]; gene RBPJ): 0.17
mRNA ([2]; gene RPL3): 0.22
mRNA ([2]; gene RPL4): 0.10
mRNA ([2]; gene RPL7): 0.01
mRNA ([2]; gene RPL7A): 0.15
mRNA ([2]; gene RPL9): −0.08
mRNA ([2]; gene RPL10): 0.25
mRNA ([2]; gene RPL10A): 0.14
mRNA ([2]; gene RPL11): 0.14
mRNA ([2]; gene RPL12): 0.12
mRNA ([2]; gene RPL13): 0.26
mRNA ([2]; gene RPL13A): 0.30
mRNA ([2]; gene RPL15): 0.19
mRNA ([2]; gene RPL18A): 0.23
mRNA ([2]; gene RPL19): 0.11
mRNA ([2]; gene RPL21): −0.04
mRNA ([2]; gene RPL22): 0.00
mRNA ([2]; gene RPL24): 0.00
mRNA ([2]; gene RPL26): 0.02
mRNA ([2]; gene RPL27): −0.13
mRNA ([2]; gene RPL27A): 0.07
mRNA ([2]; gene RPL28): 0.22
PP242 mRNA ([2]; gene RPL28): 0.55
mRNA ([2]; gene RPL31): 0.05
mRNA ([2]; gene RPL32): 0.11
mRNA ([2]; gene RPL34): 0.04
mRNA ([2]; gene RPL36A): −0.01
mRNA ([2]; gene RPL37A): 0.01
mRNA ([2]; gene RPL39): −0.15
PP242 mRNA ([2]; gene RPL39): −0.42
mRNA ([2]; gene RPL41): −0.01
mRNA ([2]; gene RPLP0): 0.12
mRNA ([2]; gene RPLP1): 0.12
mRNA ([2]; gene RPLP2): 0.14
mRNA ([2]; gene RPS2): 0.20
mRNA ([2]; gene RPS3): 0.24
mRNA ([2]; gene RPS3A): −0.06
mRNA ([2]; gene RPS4X): 0.12
mRNA ([2]; gene RPS5): 0.23
mRNA ([2]; gene RPS7): −0.04
mRNA ([2]; gene RPS9): 0.34
mRNA ([2]; gene RPS12): 0.04
mRNA ([2]; gene RPS13): −0.08
mRNA ([2]; gene RPS14): 0.16
mRNA ([2]; gene RPS15): 0.21
mRNA ([2]; gene RPS15A): 0.07
mRNA ([2]; gene RPS19): 0.23
mRNA ([2]; gene RPS20): −0.01
PP242 mRNA ([2]; gene RPS20): −0.10
mRNA ([2]; gene RPS21): 0.09
mRNA ([2]; gene RPS25): −0.04
mRNA ([2]; gene RPS27): 0.07
PP242 mRNA ([2]; gene RPS27): 0.06
mRNA ([2]; gene RPS27A): −0.04
mRNA ([2]; gene RPS28): 0.28
PP242 mRNA ([2]; gene SDCCAG10): −0.37
mRNA ([2]; gene SLC19A1): 0.10
mRNA ([2]; gene TKT): 0.33
mRNA ([2]; gene TPT1): 0.01
mRNA ([2]; gene TSC2): 0.21
mRNA ([2]; gene UBA52): 0.18
PP242 mRNA ([2]; gene UBTD2): 0.25
PP242 mRNA ([2]; gene UCHL5): −0.51
PP242 mRNA ([2]; gene VHL): 0.43
mRNA ([2]; gene VIM): 0.67
mRNA ([2]; gene YB1): 0.24

Source: patent US20190093170A1, “USE OF TRANSLATIONAL PROFILING TO IDENTIFY TARGET MOLECULES FOR THERAPEUTIC TREATMENT” (THE REGENTS OF THE UNIVERSITY OF CALIFORNIA, priority 2013, published 2019)
